Results on 42 molecules are retold here after patent US6685617B1, “Inhibitors of α4β1 mediated cell adhesion” (Pharmacia & Upjohn Company, priority 1998, dated 2004).

Experiment [1] deals with T1, α4β1 integrin (Jurkat cell adhesion to immobilized CS-1 derived peptide CLHPGEILDVPST) (Homo sapiens, UniProt P05556+P13612).
T1 construct: 100 μl of Jurkat cells (2.5×10^6 cells/ml) in DMEM plus BSA; host or cells: Jurkat T-cell line
Briefly: Jurkat-CS-1 assay. The format is cell-based. The following applies: Jurkat cells on CS-1 peptide coated plates; read-out: JK/CS-1 (Jurkat CS-1 Assay IC50 value range). In a few lines: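 CS-1 peptide was SPDP-crosslinked onto HSA-coated plates and blocked with BSA. Jurkat cells (2.5×10^6 cells/ml) in DMEM/BSA were mixed with compound, generally at 100, 20, 5 and 1.25 μM, and allowed to adhere for 1 hr at 37° C. Bound cells were fixed, stained with toluidine blue and quantified by OD590.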

Experiment [2] addresses T2, α4β1 integrin (Jurkat T-cell adhesion to IL-1 stimulated endothelial cell monolayers) (Homo sapiens, UniProt P05556+P13612).
T2 construct: a T-cell line, Jurkat, known to express the α4β1 integrin; host or cells: Jurkat T-cell line
Briefly: Jurkat-endothelial cell adhesion assay (Jurkat EC). The format is cell-based. The following applies: Jurkat cells on IL-1 stimulated human umbilical vein endothelial cells; read-out: JK/EC (Jurkat EC Assay IC50 value range). In a few lines:
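BCECF-AM-labelled Jurkat cells were mixed with compound, generally 100, 20, 5 and 1.25 μM, and added to HUVEC monolayers (passage ≤6) pre-stimulated 4 hr at 37° C with 0.1 ng/ml IL-1. After 5 min on ice and 20 min at 37° C, washed wells were read by fluorescence as % adhesion relative to no compound.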

Where only a bound is given, the exact number is not on record here.

T1 sequence (P13612 34-1032): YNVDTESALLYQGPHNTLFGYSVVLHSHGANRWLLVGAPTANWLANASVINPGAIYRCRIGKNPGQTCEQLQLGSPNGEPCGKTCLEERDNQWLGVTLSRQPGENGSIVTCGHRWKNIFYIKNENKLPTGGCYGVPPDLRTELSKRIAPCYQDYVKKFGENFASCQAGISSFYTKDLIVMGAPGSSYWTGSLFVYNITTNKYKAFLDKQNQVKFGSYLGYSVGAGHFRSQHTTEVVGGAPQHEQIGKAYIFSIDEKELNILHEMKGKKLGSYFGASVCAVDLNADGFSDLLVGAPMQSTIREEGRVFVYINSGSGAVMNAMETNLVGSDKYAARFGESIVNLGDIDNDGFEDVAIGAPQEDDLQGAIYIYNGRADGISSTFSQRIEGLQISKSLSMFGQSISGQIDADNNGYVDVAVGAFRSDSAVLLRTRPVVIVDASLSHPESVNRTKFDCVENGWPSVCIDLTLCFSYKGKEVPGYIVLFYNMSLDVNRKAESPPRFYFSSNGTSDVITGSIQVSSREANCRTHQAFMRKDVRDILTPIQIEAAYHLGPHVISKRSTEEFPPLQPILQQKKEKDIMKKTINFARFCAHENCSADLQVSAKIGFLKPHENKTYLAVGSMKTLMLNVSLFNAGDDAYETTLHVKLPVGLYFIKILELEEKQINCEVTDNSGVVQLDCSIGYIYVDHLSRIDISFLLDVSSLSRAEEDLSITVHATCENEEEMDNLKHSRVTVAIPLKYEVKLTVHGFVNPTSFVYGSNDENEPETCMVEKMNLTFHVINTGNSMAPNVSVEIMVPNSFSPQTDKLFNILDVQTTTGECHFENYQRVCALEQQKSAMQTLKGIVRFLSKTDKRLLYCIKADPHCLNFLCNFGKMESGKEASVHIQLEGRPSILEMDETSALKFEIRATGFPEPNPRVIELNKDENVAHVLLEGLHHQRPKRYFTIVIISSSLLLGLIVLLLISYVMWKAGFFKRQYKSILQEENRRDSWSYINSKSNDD
T1 sequence (P05556 21-798): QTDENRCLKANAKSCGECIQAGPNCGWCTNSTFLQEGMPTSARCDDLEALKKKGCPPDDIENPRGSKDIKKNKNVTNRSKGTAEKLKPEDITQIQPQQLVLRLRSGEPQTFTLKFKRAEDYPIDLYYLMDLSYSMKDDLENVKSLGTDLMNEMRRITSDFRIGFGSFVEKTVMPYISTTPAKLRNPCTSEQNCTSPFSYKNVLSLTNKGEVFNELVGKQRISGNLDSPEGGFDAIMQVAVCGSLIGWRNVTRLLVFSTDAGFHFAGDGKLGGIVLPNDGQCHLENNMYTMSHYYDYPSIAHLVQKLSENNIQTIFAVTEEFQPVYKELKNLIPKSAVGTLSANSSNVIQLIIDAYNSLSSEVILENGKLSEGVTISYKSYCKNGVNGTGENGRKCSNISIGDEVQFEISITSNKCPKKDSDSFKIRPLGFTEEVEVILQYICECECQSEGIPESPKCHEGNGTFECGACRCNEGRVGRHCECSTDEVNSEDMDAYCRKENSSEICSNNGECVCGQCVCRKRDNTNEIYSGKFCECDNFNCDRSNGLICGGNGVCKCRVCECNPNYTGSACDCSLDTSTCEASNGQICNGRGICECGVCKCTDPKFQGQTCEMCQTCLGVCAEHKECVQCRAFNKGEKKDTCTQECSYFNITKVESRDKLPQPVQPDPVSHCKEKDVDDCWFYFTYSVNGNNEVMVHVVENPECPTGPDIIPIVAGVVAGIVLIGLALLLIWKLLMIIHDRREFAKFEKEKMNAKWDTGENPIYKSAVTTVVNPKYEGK
T2 sequence (P13612 34-1032): as the sequence (P13612 34-1032) above
T2 sequence (P05556 21-798): as the sequence (P05556 21-798) above

Take `O=C(O)c1cccc(C(=O)N2CCCC[C@H]2C(=O)N[C@@H](Cc2ccc(NC(=O)c3c(Cl)cccc3Cl)cc2)C(=O)O)c1` [Example 182]: the IC50 in experiment [1] lay in the range of 0.05 to 0.75 µM; in experiment [2], 0.25 to 1 µM.

Regarding `O=C(Nc1ccc(C[C@H](NC(=O)[C@@H]2CCCCN2C(=O)c2cccnc2)C(=O)O)cc1)c1c(Cl)cccc1Cl` [Example 185], the IC50 in experiment [1] is not above 0.05 µM; in experiment [2], not above 0.25 µM.

As for `O=C(O)c1cccc(C(=O)N2CCCC[C@H]2C(=O)N[C@@H](Cc2ccc(NC(=O)c3c(Cl)cccc3Cl)cc2)C(=O)O)n1` [Example 186], the IC50 in experiment [1] was not above 0.05 µM; in experiment [2], not above 0.25 µM.

Take `O=C(O)c1ccc(C(=O)N2CCCC[C@H]2C(=O)N[C@@H](Cc2ccc(NC(=O)c3c(Cl)cccc3Cl)cc2)C(=O)O)nc1` [Example 187]: the IC50 in experiment [1] was 0.05 to 0.75 µM; in experiment [2], not below 1 µM.

In the case of `O=C(Nc1ccc(C[C@H](NC(=O)[C@@H]2CCCCN2C(=O)c2cc(O)c3ccccc3n2)C(=O)O)cc1)c1c(Cl)cccc1Cl` [Example 188], the IC50 is 0.05 to 0.75 µM in experiment [1] and not below 1 µM in experiment [2].

Regarding `O=C(O)c1cc(C(=O)N2CCCC[C@H]2C(=O)N[C@@H](Cc2ccc(NC(=O)c3c(Cl)cccc3Cl)cc2)C(=O)O)n[nH]1` [Example 189], the IC50 is 0.05 to 0.75 µM in experiment [1] and not below 1 µM in experiment [2].

Turning to `O=C(Nc1ccc(C[C@H](NC(=O)[C@@H]2CCCCN2C(=O)C2NC(C(=O)O)CS2)C(=O)O)cc1)c1c(Cl)cccc1Cl` (stereo partly drawn) [Example 190], the figures for the IC50 in experiment [1] and in experiment [2] were 0.05 to 0.75 µM and 0.25 to 1 µM, respectively.

For `O=C(Nc1ccc(C[C@H](NC(=O)[C@@H]2CCCCN2C(=O)c2ccc([N+](=O)[O-])o2)C(=O)O)cc1)c1c(Cl)cccc1Cl` [Example 191], the IC50 in experiment [1] was 0.05 to 0.75 µM; in experiment [2], not below 1 µM.

For the molecule `O=C(Nc1ccc(C[C@H](NC(=O)[C@@H]2CCCCN2C(=O)C2CCCO2)C(=O)O)cc1)c1c(Cl)cccc1Cl` (stereo partly drawn) [Example 192], the IC50 was not above 0.05 µM in experiment [1] and not above 0.25 µM in experiment [2].

With `O=C(Nc1ccc(C[C@H](NC(=O)[C@@H]2CCCCN2C(=O)C2CCOC2)C(=O)O)cc1)c1c(Cl)cccc1Cl` (stereo partly drawn) [Example 193], the IC50 was 0.05 to 0.75 µM in experiment [1] and not above 0.25 µM in experiment [2].

Consider `O=C(O)CC1(CC(=O)N2CCCC(C(=O)N[C@@H](Cc3ccc(NC(=O)c4c(Cl)cccc4Cl)cc3)C(=O)O)C2)CCCC1` (stereo partly drawn) [Example 195], for which the figures for the IC50 in experiment [1] and in experiment [2] were 0.05 to 0.75 µM and not below 1 µM, respectively.

Take `CC(C)(CC(=O)O)CC(=O)N1CCCC(C(=O)N[C@@H](Cc2ccc(NC(=O)c3c(Cl)cccc3Cl)cc2)C(=O)O)C1` (stereo partly drawn) [Example 196]: the IC50 is 0.05 to 0.75 µM in experiment [1] and not below 1 µM in experiment [2].

Regarding `O=C(O)/C=C\C(=O)N1CCCC(C(=O)N[C@@H](Cc2ccc(NC(=O)c3c(Cl)cccc3Cl)cc2)C(=O)O)C1` (stereo partly drawn) [Example 197], the IC50 in experiment [1] is not below 0.75 µM; in experiment [2] it was not below 1 µM.

With `O=C(Nc1ccc(C[C@H](NC(=O)C2CCCN(C(=O)C3CCCC(C(=O)O)C3)C2)C(=O)O)cc1)c1c(Cl)cccc1Cl` (stereo partly drawn) [Example 200], the IC50 in experiment [1] was 0.05 to 0.75 µM; in experiment [2] it was not below 1 µM.

`CC(=O)CCC(=O)N1CCCC(C(=O)N[C@@H](Cc2ccc(NC(=O)c3c(Cl)cccc3Cl)cc2)C(=O)O)C1` (stereo partly drawn) [Example 201]: the IC50 in experiment [1] is 0.05 to 0.75 µM; in experiment [2] it was not below 1 µM.

For `COc1ccc(C(=O)N2CCCC(C(=O)N[C@@H](Cc3ccc(NC(=O)c4c(Cl)cccc4Cl)cc3)C(=O)O)C2)cc1OC` (stereo partly drawn) [Example 203], the IC50 in experiment [1] was 0.05 to 0.75 µM; in experiment [2], not below 1 µM.

Regarding `O=C(O)c1ccccc1C(=O)N1CCCC(C(=O)N[C@@H](Cc2ccc(NC(=O)c3c(Cl)cccc3Cl)cc2)C(=O)O)C1` (stereo partly drawn) [Example 204], the IC50 lay in the range of 0.05 to 0.75 µM in experiment [1] and 0.25 to 1 µM in experiment [2].

`O=C(O)c1ccc2cc(C(=O)N3CCCC(C(=O)N[C@@H](Cc4ccc(NC(=O)c5c(Cl)cccc5Cl)cc4)C(=O)O)C3)ccc2c1` (stereo partly drawn) [Example 206]: the figures for the IC50 in experiment [1] and in experiment [2] were 0.05 to 0.75 µM and 0.25 to 1 µM, respectively.

Take `O=C(O)c1cncc(C(=O)N2CCCC(C(=O)N[C@@H](Cc3ccc(NC(=O)c4c(Cl)cccc4Cl)cc3)C(=O)O)C2)c1` (stereo partly drawn) [Example 207]: the figures for the IC50 in experiment [1] and in experiment [2] were 0.05 to 0.75 µM and not below 1 µM, respectively.

For `CC(=O)CCC(=O)N1CCC(C(=O)N[C@@H](Cc2ccc(NC(=O)c3c(Cl)cccc3Cl)cc2)C(=O)O)CC1` [Example 216], the IC50 is 0.05 to 0.75 µM in experiment [1] and not below 1 µM in experiment [2].

Turning to `O=C(O)c1cccc(C(=O)N2CCC(C(=O)N[C@@H](Cc3ccc(NC(=O)c4c(Cl)cccc4Cl)cc3)C(=O)O)CC2)c1` [Example 220], the figures for the IC50 in experiment [1] and in experiment [2] were 0.05 to 0.75 µM and not below 1 µM, respectively.

Consider `O=C(O)c1cncc(C(=O)N2CCC(C(=O)N[C@@H](Cc3ccc(NC(=O)c4c(Cl)cccc4Cl)cc3)C(=O)O)CC2)c1` [Example 222], for which the IC50 in experiment [1] is 0.05 to 0.75 µM; in experiment [2], not below 1 µM.

Turning to `O=C(O)CCC(=O)N1CCC[C@H]1C(=O)N[C@@H](Cc1ccc(NC(=O)c2c(Cl)cccc2Cl)cc1)C(=O)O` [Example 224], the IC50 in experiment [1] is 0.05 to 0.75 µM; in experiment [2], not below 1 µM.

On to `O=C(O)CC1(CC(=O)N2CCC[C@H]2C(=O)N[C@@H](Cc2ccc(NC(=O)c3c(Cl)cccc3Cl)cc2)C(=O)O)CCCC1` [Example 225], for which the IC50 was 0.05 to 0.75 µM in experiment [1] and not below 1 µM in experiment [2].

Turning to `CC(C)(CC(=O)O)CC(=O)N1CCC[C@H]1C(=O)N[C@@H](Cc1ccc(NC(=O)c2c(Cl)cccc2Cl)cc1)C(=O)O` [Example 226], the IC50 in experiment [1] was 0.05 to 0.75 µM; in experiment [2], not below 1 µM.

For `O=C(O)/C=C\C(=O)N1CCC[C@H]1C(=O)N[C@@H](Cc1ccc(NC(=O)c2c(Cl)cccc2Cl)cc1)C(=O)O` [Example 227], the IC50 in experiment [1] is 0.05 to 0.75 µM; in experiment [2], not below 1 µM.

On to `O=C(O)/C=C/C(=O)N1CCC[C@H]1C(=O)N[C@@H](Cc1ccc(NC(=O)c2c(Cl)cccc2Cl)cc1)C(=O)O` [Example 228], for which the IC50 in experiment [1] is 0.05 to 0.75 µM; in experiment [2] it was not below 1 µM.

For the molecule `COCCC(=O)N1CCC[C@H]1C(=O)N[C@@H](Cc1ccc(NC(=O)c2c(Cl)cccc2Cl)cc1)C(=O)O` [Example 229], the IC50 is 0.05 to 0.75 µM in experiment [1] and not below 1 µM in experiment [2].

Consider `O=C(Nc1ccc(C[C@H](NC(=O)[C@@H]2CCCN2C(=O)C2CCCC(C(=O)O)C2)C(=O)O)cc1)c1c(Cl)cccc1Cl` (stereo partly drawn) [Example 230], for which the IC50 in experiment [1] was 0.05 to 0.75 µM; in experiment [2], not below 1 µM.

As for `CC(=O)CCC(=O)N1CCC[C@H]1C(=O)N[C@@H](Cc1ccc(NC(=O)c2c(Cl)cccc2Cl)cc1)C(=O)O` [Example 231], the figures for the IC50 in experiment [1] and in experiment [2] were 0.05 to 0.75 µM and not below 1 µM, respectively.

Take `O=C(O)CNC(=O)N1CCC[C@H]1C(=O)N[C@@H](Cc1ccc(NC(=O)c2c(Cl)cccc2Cl)cc1)C(=O)O` [Example 232]: the IC50 was not below 0.75 µM in experiment [1] and not below 1 µM in experiment [2].

Turning to `COc1ccc(C(=O)N2CCC[C@H]2C(=O)N[C@@H](Cc2ccc(NC(=O)c3c(Cl)cccc3Cl)cc2)C(=O)O)cc1OC` [Example 233], the figures for the IC50 in experiment [1] and in experiment [2] were 0.05 to 0.75 µM and not below 1 µM, respectively.

For the molecule `O=C(O)c1ccccc1C(=O)N1CCC[C@H]1C(=O)N[C@@H](Cc1ccc(NC(=O)c2c(Cl)cccc2Cl)cc1)C(=O)O` [Example 234], the IC50 in experiment [1] is 0.05 to 0.75 µM; in experiment [2], not below 1 µM.

Take `O=C(O)c1cccc(C(=O)N2CCC[C@H]2C(=O)N[C@@H](Cc2ccc(NC(=O)c3c(Cl)cccc3Cl)cc2)C(=O)O)c1` [Example 235]: the IC50 in experiment [1] is 0.05 to 0.75 µM; in experiment [2], not below 1 µM.

In the case of `O=C(O)c1ccc2cc(C(=O)N3CCC[C@H]3C(=O)N[C@@H](Cc3ccc(NC(=O)c4c(Cl)cccc4Cl)cc3)C(=O)O)ccc2c1` [Example 236], the results for the IC50 in experiment [1] and in experiment [2] were not below 0.75 µM and not below 1 µM, respectively.

Turning to `O=C(O)c1cncc(C(=O)N2CCC[C@H]2C(=O)N[C@@H](Cc2ccc(NC(=O)c3c(Cl)cccc3Cl)cc2)C(=O)O)c1` [Example 237], the results for the IC50 in experiment [1] and in experiment [2] were 0.05 to 0.75 µM and not below 1 µM, respectively.

As to `O=C(O)c1ccc(NC(=O)N2CCC[C@H]2C(=O)N[C@@H](Cc2ccc(NC(=O)c3c(Cl)cccc3Cl)cc2)C(=O)O)cc1` [Example 238], the values for the IC50 in experiment [1] and in experiment [2] were 0.05 to 0.75 µM and not below 1 µM, respectively.

As for `O=C(Nc1ccc(C[C@H](NC(=O)[C@@H]2CSCN2C(=O)c2cccnc2)C(=O)O)cc1)c1c(Cl)cccc1Cl` [Example 239], the IC50 in experiment [1] is 0.05 to 0.75 µM; in experiment [2] it was not below 1 µM.

Consider `O=C(O)c1cccc(C(=O)N2CSC[C@H]2C(=O)N[C@@H](Cc2ccc(NC(=O)c3c(Cl)cccc3Cl)cc2)C(=O)O)n1` [Example 240], for which the IC50 in experiment [1] is 0.05 to 0.75 µM; in experiment [2], not below 1 µM.

With `O=C(O)c1ccc(C(=O)N2CSC[C@H]2C(=O)N[C@@H](Cc2ccc(NC(=O)c3c(Cl)cccc3Cl)cc2)C(=O)O)nc1` [Example 241], the results for the IC50 in experiment [1] and in experiment [2] were 0.05 to 0.75 µM and not below 1 µM, respectively.

Regarding `O=C(Nc1ccc(C[C@H](NC(=O)[C@@H]2CSCN2C(=O)c2cc(O)c3ccccc3n2)C(=O)O)cc1)c1c(Cl)cccc1Cl` [Example 242], the IC50 in experiment [1] is 0.05 to 0.75 µM; in experiment [2], not below 1 µM.

As to `O=C(O)c1cc(C(=O)N2CSC[C@H]2C(=O)N[C@@H](Cc2ccc(NC(=O)c3c(Cl)cccc3Cl)cc2)C(=O)O)n[nH]1` [Example 243], the IC50 in experiment [1] was 0.05 to 0.75 µM; in experiment [2], 0.25 to 1 µM.
